{
  "source": "patent US9683982B2",
  "about": "“Method for diagnosis and/or prognosis of cancers by analysis of the mechanical properties of tumor cells” (Universität Leipzig, priority 2010, dated 2017)",
  "origin": "cited, not measured here",
  "system": "cells of the cell line MCF7",
  "details": "addition of 100 nmol/l TPA for 18 h in culture",
  "data": [
    {"smiles": "CCCCCCCCCCCCCC(=O)O[C@@H]1[C@@H](C)[C@@]2(O)[C@@H](C=C(CO)C[C@]3(O)C(=O)C(C)=C[C@@H]23)[C@@H]2C(C)(C)[C@]12OC(C)=O", "note": "[TPA, 12-O-tetradecanoylphorbol-13-acetate]", "values": [
      {"measurement": "invasive potential and metastasis-forming potential", "result": "significant increase"}
    ]}
  ]
}
